Reference: patent publication US20120251551A1, “Substituted (Heteroarylmethyl)thiohydantoins” (BAYER PHARMA AKTIENGESELLSCHAFT, priority 2009, published 2012)
Positions count from the first letter of the chain named.

Experiments:
[1] = molecular target: T1, wild-type human androgen receptor (Homo sapiens, UniProt P10275); assay: Cell-based transactivation assay for wild-type human androgen receptor (PC-3 cells, MMTV-luciferase reporter)
T1 construct: expressed in transfected cells
T1 sequence (P10275 1-920): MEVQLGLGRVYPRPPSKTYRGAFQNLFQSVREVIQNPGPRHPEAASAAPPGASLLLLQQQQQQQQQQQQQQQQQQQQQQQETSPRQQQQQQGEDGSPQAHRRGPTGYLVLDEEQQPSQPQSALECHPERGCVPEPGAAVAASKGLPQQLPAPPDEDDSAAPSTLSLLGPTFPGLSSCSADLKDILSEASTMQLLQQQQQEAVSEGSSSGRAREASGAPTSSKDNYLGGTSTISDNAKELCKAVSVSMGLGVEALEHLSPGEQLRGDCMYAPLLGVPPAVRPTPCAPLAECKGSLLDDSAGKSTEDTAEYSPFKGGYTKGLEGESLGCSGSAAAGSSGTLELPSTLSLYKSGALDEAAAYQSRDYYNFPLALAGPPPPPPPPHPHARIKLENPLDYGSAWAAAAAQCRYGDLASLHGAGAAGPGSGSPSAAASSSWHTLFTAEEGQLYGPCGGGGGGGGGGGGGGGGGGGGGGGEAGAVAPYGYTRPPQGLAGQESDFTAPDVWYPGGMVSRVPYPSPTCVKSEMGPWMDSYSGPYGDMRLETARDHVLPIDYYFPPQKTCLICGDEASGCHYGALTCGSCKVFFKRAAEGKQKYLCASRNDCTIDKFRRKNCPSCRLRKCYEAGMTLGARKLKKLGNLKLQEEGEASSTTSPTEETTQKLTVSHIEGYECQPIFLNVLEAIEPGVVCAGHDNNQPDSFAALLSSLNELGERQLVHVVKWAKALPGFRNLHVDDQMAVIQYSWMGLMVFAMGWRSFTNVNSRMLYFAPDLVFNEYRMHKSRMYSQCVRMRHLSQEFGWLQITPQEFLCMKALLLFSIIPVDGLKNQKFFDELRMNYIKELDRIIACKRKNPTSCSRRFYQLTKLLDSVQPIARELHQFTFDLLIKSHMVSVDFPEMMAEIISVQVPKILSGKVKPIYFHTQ

[2] = molecular target: T2, human androgen receptor W741L mutant (Homo sapiens, UniProt P10275, W742L); assay: Cell-based transactivation assay for human androgen receptor mutant W741L
T2 construct: expressed in transfected cells; host or cells: PC-3 cells, transient transfection with a pSG5-derived plasmid
T2 sequence (P10275 1-920 W742L): T1 sequence (P10275 1-920) with W742L
Protocol: Cell-Based Transactivation Assay for Human Androgen Receptor Mutant W741L or W741C
PC-3 cells (Kaighn et al., Invest. Urol. 17:16-23, 1979) were grown in 5% charcoal-stripped medium and seeded at a concentration of 10000 cells per well in a 96-well plate. They were transiently transfected with a pSG5-derived plasmid (#216201 from Stratagene, La Jolla, Calif., USA) coding for the human androgen receptor W741L or W741C mutant Mara et al., Cancer Research, 63: 149-153, 2003) and an MMTV-Luciferase reporter plasmid based on pGL4.14 14 (#E6691, Promega Corporation, Madison, Wis., USA). The compound to be tested was added at a concentration range varying from 1×10^−9 to 1×10 M together with 1×10^−10 R1881. After 24 h incubation at 37° C. in a 5% CO2 atmosphere, 100 μl of Steady Glo Lysis and Detection reagent (Steady Glo Luciferase assay system E2550 from Promega Corporation. Madison, Wis., USA) were added. Antagonistic activity was determined by measuring Luciferase activity in a Victor 3 Luminometer (PerkinElmer, Waltham, Mass., USA) using the Steady Glo Luciferase Assay (E2550, Promega). IC50 values were calculated for anti-androgenic activity.

[3] = molecular target: T3, human androgen receptor E709Y mutant (Homo sapiens, UniProt P10275, E710Y); assay: Cell-based transactivation assay for human androgen receptor mutant E709Y
T3 construct: expressed in transfected cells; host or cells: PC-3 cells, transient transfection with a pSG5-derived plasmid
T3 sequence (P10275 1-920 E710Y): T1 sequence (P10275 1-920) with E710Y
Protocol: Cell-Based Transactivation Assay for Human Androgen Receptor Mutant E709Y
PC-3 cells (Kaighn et al., Invest. Urol. 17:16-23, 1979) were grown in 5% charcoal-stripped medium and seeded at a concentration of 10000 cells per well in a 96-well plate. They were transiently transfected with a pSG5-derived plasmid (#216201 from Stratagene, La Jolla, Calif., USA) coding for the human androgen receptor E709Y mutant (Georget et al., Molecular Endocrinology, 20(4): 724-734, 2006) and an MMTV-Luciferase reporter plasmid based on pGL4.14 14 (#E6691, Promega Corporation, Madison, Wis., USA). The compound to be tested was added at a concentration range varying from 1×10^−9 to 1×10^−6 M together with 1×10^−10 R1881. After 24 h incubation at 37° C. in a 5% CO2 atmosphere, 100 μl of Steady Glo Lysis and Detection reagent (Steady Glo Luciferase assay system E2550 from Promega Corporation. Madison, Wis., USA) were added. Antagonistic activity was determined by measuring Luciferase activity in a Victor 3 Luminometer (PerkinElmer, Waltham, Mass., USA) using the Steady Glo Luciferase Assay (E2550, Promega). IC50 values were calculated for anti-androgenic activity.

VCaP cells = assay: Proliferation assay with VCaP cells; type: cell-based; settings: Homo sapiens, 168 h, R1881 (1×10^−10) stimulated growth, day 7, read-out: Antiproliferative activity VCaP IC50
Protocol: Proliferation Assay with VCaP Cells
VCaP cells ((Korenchuk et al., In Vivo 15: 163-168, 2001)) were seeded at 16 000 cells/well in 96-well plates in DMEM (F0445, Biochrom AG, Berlin, Germany) with phenol red supplemented with 10% charcoal-stripped serum. After 1 day, the cells were treated with R1881 (1×10^−10) and compound (day 0). Cell number was determined by Alamar Blue (DAL1100, Invitrogen, Life Technologies, Lohne, Germany) staining (2.5 h) at day 0 and day 7. Fluorescence was determined in Victor3 (Excitation 530 nm; emission 590 nm). Stimulated growth was defined as the signal measured at day 7 for cells treated only with R1881. Basal level was defined as the signal measured at day 7 for cells grown without R1881.

LNCaP cells = assay: Proliferation assay with LNCaP cells; type: cell-based; settings: Homo sapiens, 168 h, R1881 (1×10^−10) stimulated growth, day 7, read-out: inhibition IC50 (LNCaP)
Protocol: Proliferation Assay with LNCaP Cells
LNCaP cells (Horoszewicz et al., in “Models for Prostate Cancer” (ed. G. P. Murphy), Alan R. Liss, New York 1981, p. 115-132; Horoszewicz et al., Cancer Res. 43:1809-1818, 1983) were seeded at 2000 cells/well in 96-well plates in RPMI (F1235, Biochrom AG, Berlin, Germany) without phenol red supplemented with 5% charcoal-stripped serum. After 3 days, the cells were treated with R1881) (1×10^−10) and compound (day 0). Cell number was determined by Alamar Blue (DAL1100, Invitrogen, Life Technologies, Lohne, Germany) staining (2.5 h) at day 0 and day 7. Fluorescence was determined in Victor3 (Excitation 530 nm; emission 590 nm). Stimulated growth was defined as the signal measured at day 7 for cells treated only with R1881. Basal level was defined as the signal measured at day 7 for cells grown without R1881.

SMILES: COc1ccc(CN2C(=S)N(c3ccc(C#N)c(C(F)(F)F)c3)C(=O)C2(C)C)cc1 [Comparative data^4]
- EC50 [1]: 6.81 µM
- IC50 [2]: 379 nM
- IC50 [3]: 80.2 nM
- IC50 (VCaP cells): 860 nM

SMILES: CC1(C)C(=O)N(c2ccc(C#N)c(C(F)(F)F)c2)C(=S)N1Cc1cnc(N2CCOCC2)nc1N [Example 6, 4-(3-{[4-Amino-2-(morpholin-4-yl)pyrimidin-5-yl]methyl}-4,4-dimethyl-5-oxo-2-thioxoimidazolidin-1-yl)-2-(trifluoromethyl)benzonitrile]
- EC50 [1]: 5 µM
- IC50 [2]: 92.8 nM
- IC50 [3]: 19.3 nM

SMILES: CN=S1(=O)CCN(c2ccc(CN3C(=S)N(c4ccc(C#N)c(C(F)(F)F)c4)C(=O)C3(C)C)cn2)CC1 [Example 22, 4-[4,4-Dimethyl-3-({6-[1-(methylimino)-1-oxido-1λ^6-thiomorpholin-4-yl]pyridin-3-yl}methyl)-5-oxo-2-thioxoimidazolidin-1-yl]-2-(trifluoromethyl)benzonitrile]
- EC50 [1]: > 10 µM
- IC50 [2]: 57.4 nM
- IC50 (LNCaP cells): 135 nM

SMILES: CC1(C)C(=O)N(c2ccc(C#N)c(C(F)(F)F)c2)C(=S)N1Cc1ccc(N2CCNC2=O)nc1 [Example 25, 4-(4,4-Dimethyl-5-oxo-3-{[6-(2-oxoimidazolidin-1-yl)pyridin-3-yl]methyl}-2-thioxoimidazolidin-1-yl)-2-(trifluoromethyl)benzonitrile]
- EC50 [1]: > 10 µM
- IC50 [2]: 246 nM

SMILES: CC1(C)C(=O)N(c2ccc(C#N)c(C(F)(F)F)c2)C(=S)N1Cc1ccc(N=[S@](C)(=O)c2ccccc2)nc1 [Example 26, (R)-4-{4,4-Dimethyl-3-[(6-{[methyl(oxido)phenyl-λ^6-sulfanylidene]amino}pyridin-3-yl)methyl]-5-oxo-2-thioxoimidazolidin-1-yl}-2-(trifluoromethyl)benzonitrile]
- EC50 [1]: > 10 µM
- IC50 [2]: 211 nM

SMILES: CC1(C)C(=O)N(c2ccc(C#N)c(C(F)(F)F)c2)C(=S)N1Cc1ccc(-n2cnnn2)nc1 [Example 31, 4-(4,4-Dimethyl-5-oxo-3-{[6-(1H-tetrazol-1-yl)pyridin-3-yl]methyl}-2-thioxoimidazolidin-1-yl)-2-(trifluoromethyl)benzonitrile]
- EC50 [1]: > 10 µM
- IC50 [2]: ≥ 1000 nM

SMILES: CC1(C)C(=O)N(c2ccc(C#N)c(C(F)(F)F)c2)C(=S)N1Cc1ccc(-n2cnc(CO)c2)nc1 [Example 34, 4-[3-({6-[4-(Hydroxymethyl)-1H-imidazol-1-yl]pyridin-3-yl}methyl)-4,4-dimethyl-5-oxo-2-thioxoimidazolidin-1-yl]-2-(trifluoromethyl)benzonitrile]
- EC50 [1]: > 10 µM
- IC50 [2]: 259 nM
- IC50 (VCaP cells): 331 nM

SMILES: CC1(C)C(=O)N(c2ccc(C#N)c(C(F)(F)F)c2)C(=S)N1Cc1ccc(OCCN2CCNC2=O)nc1 [Example 35, 4-[4,4-Dimethyl-5-oxo-3-({6-[2-(2-oxoimidazolidin-1-yl)ethoxy]pyridin-3-yl}methyl)-2-thioxoimidazolidin-1-yl]-2-(trifluoromethyl)benzonitrile]
- EC50 [1]: > 10 µM
- IC50 [2]: 44.6 nM

SMILES: CC1(C)C(=O)N(c2ccc(C#N)c(C(F)(F)F)c2)C(=S)N1Cc1ccc(N2CCS(=O)(=NC#N)CC2)nc1 [Example 36, {4-[5-({3-[4-Cyano-3-(trifluoromethyl)phenyl]-5,5-dimethyl-4-oxo-2-thioxoimidazolidin-1-yl}methyl)pyridin-2-yl]-1-oxido-1λ^6,4-thiomorpholin-1-ylidene}cyanamide]
- EC50 [1]: > 10 µM
- IC50 [2]: ≥ 1000 nM
- IC50 (VCaP cells): 329 nM

SMILES: Cc1nc(OCC(C)(C)O)ccc1CN1C(=S)N(c2ccc(C#N)c(C(F)(F)F)c2)C(=O)C1(C)C [Example 37, 4-(3-{[6-(2-Hydroxy-2-methylpropoxy)-2-methylpyridin-3-yl]methyl}-4,4-dimethyl-5-oxo-2-thioxoimidazolidin-1-yl)-2-(trifluoromethyl)benzonitrile]
- EC50 [1]: > 10 µM
- IC50 [2]: 241 nM
- IC50 (VCaP cells): 323 nM

SMILES: Cc1nnnn1-c1ccc(CN2C(=S)N(c3ccc(C#N)c(C(F)(F)F)c3)C(=O)C2(C)C)cn1 [Example 38, 4-(4,4-Dimethyl-3-{[6-(5-methyl-1H-tetrazol-1-yl)pyridin-3-yl]methyl}-5-oxo-2-thioxoimidazolidin-1-yl)-2-(trifluoromethyl)benzonitrile]
- EC50 [1]: > 10 µM
- IC50 [2]: 366 nM
